Non-standard residues stand in square brackets, D forms with d. No end group written: not given here. pS = N[C@@H](COP(=O)(O)O)C(=O)O
Columns and labels:
[1] = system: NMDA receptors; assay: Whole-cell voltage clamp: mGluR5-SIC, NMDA receptor dependence; format: cell-based
[2] = system: mGluR5-SIC; format: cell-based, mouse; conditions: Homer1−/−Homer2−/−Homer3−/− neurons; for effect of Pin1 peptide on BDNF potentiation of mGluR5-SIC: 0.5 μM in the pipette, n = 5
[3] = molecular target: T1, Homer1a (Rattus norvegicus, UniProt Q9Z214); assay: Homer1a induction in cultured striatal neurons; format: cell-based; conditions: 30 min, 50 mM KCl
T1 sequence (Q9Z214 1-186 isoform Q9Z214-3): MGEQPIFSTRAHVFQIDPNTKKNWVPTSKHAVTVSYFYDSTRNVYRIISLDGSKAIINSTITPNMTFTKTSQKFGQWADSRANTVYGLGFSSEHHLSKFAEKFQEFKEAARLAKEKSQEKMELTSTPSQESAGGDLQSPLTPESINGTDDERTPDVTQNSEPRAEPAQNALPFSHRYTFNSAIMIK

[4] = system: mGluR5; conditions: bath application, 5 μM
[5] = system: mGluR5-SIC; assay: Whole-cell voltage clamp: SKF38393; format: cell-based, mouse
[6] = system: corticostriatal synapse depotentiation; assay: Field potential recording: depotentiation of corticostriatal LTP; set-up: species or system mouse; conditions: SKF38393 3 μM
[7] = system: mGluR5; assay: mGluR5 phosphorylation and Homer1a expression in mouse striatum; format: in vivo
[8] = system: glutamate and dopamine in the nucleus accumbens; assay: In vivo microdialysis: glutamate and dopamine in nucleus accumbens; set-up: species or system mouse
[9] = system: Pin1-mGluR5; assay: Pin1 co-immunoprecipitation with mGluR5 from mouse striatum; format: in vivo
[10] = system: locomotor activity of mice; assay: Cocaine locomotion and motor sensitization; format: in vivo, mouse
[11] = system: GST-Pin1; format: binding; conditions: mGluR5 expressed in HEK293 cells
[12] = molecular target: T1, Homer1a; assay: ITC of mGluR5 peptide into full length Homer1a; format: binding; conditions: versus unphosphorylated peptide
[13] = molecular target: Pin1 (Homo sapiens, UniProt Q13526); assay: 15N ZZ-exchange NMR: Pin1-catalyzed cis/trans isomerization of mGluR5 peptide; format: biochemical; conditions: Homer1a equimolar to peptide; Pin1 sub-stoichiometric (1:10)
Sequence of Pin1 (Q13526 whole entry, species assumed): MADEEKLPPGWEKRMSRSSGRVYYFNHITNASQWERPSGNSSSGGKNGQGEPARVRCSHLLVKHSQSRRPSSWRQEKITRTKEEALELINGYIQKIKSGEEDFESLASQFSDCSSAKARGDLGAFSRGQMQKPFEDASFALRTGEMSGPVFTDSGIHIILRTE

[14] = 20 mg/kg, i.p., mice, n = 6 each group
[15] = 10 mg/kg, WT n = 7, Grm5AA/AA n = 9
[16] = i.p. four times, 10 or 30 mg/kg

## N[C@@H](CCCP(=O)(O)O)C(=O)O [APV]
[1]; 50 μM
  block of mGluR5-SIC by APV: blocked

## COC(=O)[C@@]1(O)C[C@H]2O[C@]1(C)n1c3ccccc3c3c4c(c5c6ccccc6n2c5c31)C(=O)NC4 [K252a]
[2]; 100 nM
  block of BDNF potentiation of mGluR5-SIC by TrkB inhibitor: blocked BDNF potentiation

## [Cl-].[K+] [KCl]
[3]
  Homer1a induction: induced Homer1a

## C[C@]12N[C@H](Cc3ccccc31)c1ccccc12 [MK-801]
[1]; in the recording pipette
  block of mGluR-SIC by MK-801: Blockade

## Cc1cccc(C#Cc2ccccc2)n1 [MPEP, 2-Methyl-6-(phenylethynyl)pyridine]
[4]
  block of mGluR5-SIC by MPEP: blocked

## O=C(O)[C@@H]1[C@H](C(=O)O)NCCN1C(=O)c1ccc2c(ccc3ccccc32)c1 [PPDA]
[1]; 0.2 μM
  block of mGluR5-SIC by PPDA: blocked

## Oc1cc2c(cc1O)C(c1ccccc1)CNCC2 (stereo not shown) [SKF38393]
[5]; SKF38393 1 μM after KCl pretreatment, D1-GFP, n = 8, p < 0.001
  mGluR5-SIC potentiation, D1R-GFP neurons: robust and consistent potentiation
[5]; SKF38393 1 μM after KCl pretreatment, D2-GFP, n = 10
  mGluR5-SIC potentiation, D2-GFP neurons: not D2 receptor-expressing neurons
[5]; SKF38393 1 μM, bath, Homer1−/−Homer2−/−Homer3−/− neurons
  mGluR5-SIC potentiation, Homer triple knockout neurons: potentiated
[5]; SKF38393 1 μM, Homer1−/−Homer2−/−Homer3−/− neurons, p < 0.005
  neurons with potentiation of mGluR5-SIC: 6 of 13 neurons
[6]; 0.5 hrs before HFS, n = 6 and n = 8
  depotentiation, pretreatment, WT slices: prevented depotentiation
[6]; 0.5 hrs before HFS, n = 10
  depotentiation, pretreatment, Homer1a−/− slices: failed to block depotentiation
[6]; 0.5 hrs before HFS, n = 12
  depotentiation, pretreatment, Grm5AA/AA slices: failed to block depotentiation
[6]; beginning 25 min after HFS, n = 4
  depotentiation, acute, WT slices: did not block depotentiation
[6]; beginning 25 min after HFS, n = 6
  depotentiation, acute, Grm5R/R slices: did block depotentiation

## N#CC(=C(/N)Sc1ccccc1N)/C(C#N)=C(/N)Sc1ccccc1N [UO126]
[2]; 20 μM
  block of BDNF potentiation of mGluR5-SIC by MEK inhibitor: blocked BDNF potentiation

## COC(=O)[C@H]1[C@@H](OC(=O)c2ccccc2)C[C@@H]2CC[C@H]1N2C [cocaine]
[7]; 10 mg/kg, i.p., 30 min, WT n = 6, Homer1−/−Homer2−/−Homer3−/− n = 7, versus saline
  mGluR5 phosphorylation, WT and Homer triple knockout: increased mGluR5 phosphorylation
[7]; [14]
  Homer1a expression in striatum: induces Homer1a expression
  mGluR5 Ser-1126 phosphorylation in striatum: induces transient phosphorylation
  mGluR5 Thr-1123 phosphorylation in striatum: not Thr-1123
[7]; cocaine administration, immunoselection of pT1123
  double phosphorylation of mGluR5: Double phosphorylation is induced
[8]; [15]
  dopamine response, Grm5AA/AA mice, 1st injection: modest reduction
  glutamate response, Grm5AA/AA mice, 1st injection: normal glutamate response
[8]; 10 mg/kg, WT n = 7, Grm5AA/AA n = 9, P < 0.05
  glutamate and dopamine response, Grm5AA/AA mice, 4th injection: blunted neurotransmitter responsiveness
[8]; 30 mg/kg, n = 8 each group
  glutamate and dopamine response, Homer1a−/− mice, 1st injection: normal glutamate and dopamine responses
[8]; 30 mg/kg, n = 8 each group, P < 0.05
  glutamate and dopamine response, Homer1a−/− mice, 4th injection: blunted neurotransmitter responsiveness
[9]; 10 mg/kg, i.p., 30 min, Homer1−/−Homer2−/−Homer3−/− mice
  Pin1 co-immunoprecipitation with mGluR5, Homer triple knockout: increases after cocaine administration
[9]; acute cocaine, WT mice
  increase of Pin1 binding, WT mice: did not detect an increase of Pin1 binding in WT mice
[10]; acute, i.p., 10 or 30 mg/kg
  acute locomotor response, Grm5AA/AA mice: increased locomotor response to acute cocaine
  acute locomotor response, Grm5TS/AAPin1+/− double heterozygotes: WT-levels of activity in response to acute cocaine
[10]; [16]
  motor sensitization, Grm5AA/AA mice: markedly reduced sensitization
  motor sensitization, Grm5TS/AAPin1+/− double heterozygotes: reduced motor sensitization
  motor sensitization, Homer1a−/− mice: profound deficit of cocaine motor sensitization
[10]; initial dose, i.p. 10 or 30 mg/kg
  acute locomotor response, Homer1a−/− mice: WT-like response to the initial dose of cocaine

## CC(C(O)c1ccc(O)cc1)N1CCC(Cc2ccccc2)CC1 (stereo not shown) [ifenprodil]
[1]
  block of mGluR5-SIC by ifenprodil: blocked

## Ac-FY[pS]PR-NH2 [Pin1 control peptide mimic]
[2]
  effect of Pin1 peptide on BDNF potentiation of mGluR5-SIC: not by Pin1 control peptide mimic

## Ac–Phe–Phe–pSer-Ψ[(Z)CH=C]-Pro–Arg–NH2 [Pin1 peptide mimic inhibitor]
[2]
  effect of Pin1 peptide on BDNF potentiation of mGluR5-SIC: blocked

## WT mGluR5: full-length mGluR5 expressed in HEK293 cells
[11]
  GST-Pin1 binding to full-length mGluR5: bound

## mGluR5(S1126A): mutant that prevents phosphorylation at S1126
[11]
  GST-Pin1 binding to full-length mGluR5: bound

## mGluR5(T1123A): mutant that prevents phosphorylation at T1123
[11]
  GST-Pin1 binding to full-length mGluR5: bound

## mGluR5(T1123A, S1126A): mutant that prevents phosphorylation at both sites
[11]
  GST-Pin1 binding to full-length mGluR5: did not bind

## mGluR5-pS: mGluR5 peptide phosphorylated at S^1126 in vitro (KELVALTPP[pS]PFRD)
[12]
  increase in Homer1a affinity on S1126 phosphorylation: > 10 fold
[13]
  Pin1 catalysis of pS1126-P bond in the presence of equimolar Homer1a: Pin1 was able to catalyze isomerization of pS^1126-P bond

From paper PMC3785238 (Cell, 2013)
